Measurements as given in patent US12605351B2, “Method for producing a composition comprising a 3-O-p-coumaroyl ester of tormentic acid from a plant cell culture, applications thereof as antiparasitic agent for the treatment of trypanosomiasis” (LUXEMBOURG INSTITUTE OF SCIENCE AND TECHNOLOGY, priority 2019, dated 2026).
Like-named read-outs stand apart in the source and are kept apart here.

Tests used:
[1] = test system: Trypanosoma brucei brucei bloodstream forms (strain 427); assay: In vitro antitrypanosomal activity on Tbb BSF; type: cell-based; details: for IC50: Trypanosoma brucei, Tbb bloodstream forms strain 427, Table 3
Description: Antiparasitic activities were evaluated in vitro on Trypanosoma brucei brucei bloodstream forms (strain 427) (Tbb BSF). Tbb BSF were cultured in vitro at 37° C. with 5% CO2 in HMI9 medium containing 10% heat-inactivated fetal bovine serum, […] ([…]) and L-cysteine ([…]).
(§1) In vitro tests were performed as previously described by Hoet S. et al. (Planta Med., 2004, 70, 407-413, doi:10.1055/s-2004-818967). Suramine (a commercial anti-trypanosomal drug) and camptothecin were used as positive controls. Stock solutions of compounds to be tested were prepared at a concentration of 10 mg/mL in DMSO. The solutions were further diluted in medium (described in 1.1) to give 0.1 mg/mL stock solutions. Extracts and compounds were tested in eight serial three-fold dilutions (final concentration range: 50-0.02 mg/L) in 96-well microliter plates. All tests were performed at least in duplicate.

[2] = test system: Human normal fibroblast cell line (WI-38); assay: cells; type: cell-based; details: cytotoxicity, WI-38 human fibroblasts, Table 3
Description: The cytotoxicity of tested compounds was evaluated in parallel on a Human normal fibroblast cell line (WI-38) cultivated in a humidified atmosphere with 5% CO2 at 37° C. Human normal fibroblast cell line (WI-38) was cultivated in DMEM medium (Life Technologies) containing 4 mM L-glutamine, 1 mM sodium pyruvate supplemented with 10% fetal bovine serum (Sigma) and penicillin-streptomycin (100 UI/mL).
as §1, with “Suramine” for “In vitro tests were performed as previously described by Hoet S. et al. (Planta Med., 2004, 70, 407-413, doi:10.1055/s-2004-818967). Suramine”

[3] = In vivo acute toxicity test (highest tolerated dose); parameters: species or system NMRI mice
Excerpt: (§2) NMRI mice (6-8 weeks of age) obtained from Envigo Laboratories (The Netherlands) were used. All in vivo experiments performed were approved by the Ethical Committee for animals use at the Health Sciences Sector of the Catholic University of Louvain (2017/UCL/MD/017).
The assessment of the highest tolerated dose was based on a DNDi protocol by Loset J.-R. et al. (V. Drug Screening for Kinetoplastids Diseases. A Training Manual for Screening in Neglected Diseases-DNDi, 2009) and adapted by Beaufay C. et al. (Malar J., 2017, 16, doi:10.1186/s12936-017-2054-y). Briefly, 3-O-cis/trans-p-coumaroyltormentic acid isolated from fractions F-F9 obtained from a callus of Malus domestica Cox cultivar of example 1 above was given intraperitoneally every 2 hours to 2 mice using increasing doses: 10-15-25-50 mg/kg from stock solutions of 10 mg/mL. Mice were controlled for any health problem symptoms or behavioral changes and monitored for weight and hematocrit after each injection and every day during 48 h after administration. Main organs (heart, liver, spleen, lung and kidney) of treated mice were observed and weighed wet during autopsy. Control group received the vehicle, distilled water with 10% of tween 80-ethanol (7:3). The total injected dose was finally recorded and will ensure the non-toxicity of in vivo anti-trypanosomal test.

[4] = test system: Trypanosoma brucei brucei; assay: In vivo anti-trypanosomal activity in infected mice; parameters: species or system NMRI mice
Excerpt: as §2
Mice were randomly divided into 6 mice per group for 3-O-cis/trans-p-coumaroyltormentic acid (mixture of cis and trans) and ursolic acid, 4 for positive control (Suramine) and 7 for the negative control, and were infested intraperitoneally with 10^4 Trypanosoma brucei brucei. All compounds were solubilized in the vehicle (water-tween 80-ethanol) and administered intraperitoneally. 3-O-cis/trans-p-coumaroyltormentic acid or ursolic acid (UA) were administered at 50 mg/kg at day 3 after infection with the parasite and then every day until day 7 post-infection. Suramine (0.5 mg/kg) was administered while vehicle was used as a negative control. From day 3 post infection, a drop of blood collected each day from mouse-tail was used to count parasitemia.

[5] = test system: Trypanosoma brucei brucei; details: review Isah et al. 2016; cited from earlier work
MCR-5 cells = details: cited from earlier work
Trypanosoma cruzi = details: review Isah et al. 2016; cited from earlier work

Compound	IC50 ([1]; read-out: Tbb (IC50 μM))	IC50 ([1]; read-out: Tbb (IC50 μg/mL))	SI (Selectivity Index) ([1]; cytotoxicity in WI38 compared to Tbb)	IC50 ([2]; read-out: WI38 (IC50 μM))	IC50 ([2]; read-out: WI38 (IC50 μg/mL))	total cumulative highest tolerated dose ([3]; NMRI, mouse, in vivo, ip, 48 h)	acute toxicity ([3]; mice, intraperitoneally every 2 hours, 10-15-25-50 mg/kg, monitored 48 h)	survival of infected mice in comparison to the untreated group ([4]; 50 mg/kg/d i.p. day 3-7 post-infection, followed to day 19)	parasitemia ([4]; day 4 post-infection, 50 mg/kg/day intraperitoneally, 10^4 Tbb/mouse)	survival increase ([4]; day 12 post-infection, 50 mg/kg i.p. day 3-7)	IC50 against Trypanosoma brucei brucei [5]	cytotoxicity IC50 on MCR-5 cells (MCR-5 cells)	IC50 against Trypanosoma cruzi (Trypanosoma cruzi)
C[C@H]1[C@H](C)CC[C@]2(C(=O)O)CC[C@]3(C)C(=CC[C@@H]4[C@@]5(C)CC[C@H](O)C(C)(C)[C@@H]5CC[C@]43C)[C@H]12 [Ursolic acid]	2.38 ± 0.24 µM	1.08 ± 0.11 µg/mL	4.8	11.1 ± 0.22 µM	5.08 ± 0.1 µg/mL	100 mg/kg	no acute toxic symptom	no significant difference	did not show any effect	16.7%			
tingenin											< 0.25 µg/mL	0.45 µg/mL	< 0.25 µg/mL
